Source: patent US11198673B2, “Therapeutic compounds and compositions” (eXIthera Pharmaceuticals, Inc., priority 2014, dated 2021)
Where a name gives a salt, the structure may show the parent alone.

Columns and labels:
[1] = β-Lactam stability in rat plasma; assay type: in vitro ADME; conditions: normal rat plasma, room temperature; read-out: Rat Plasma Stability (T1/2; min)
Experimental: Normal rat plasma, stored at −80° C.
• 1. Place 6 μL of each compound into 0.5 mL microcentrifuge tubes or 96-well U-bottom, polypropylene microtiter plate • 2. Place 40 μL of acetonitrile (AcN) into 0.5 mL microcentrifuge tubes labeled 1-9 • 3. Add 114 μL of plasma to each compound • 4. Sample 10 μL of compound/plasma into AcN at 2, 10, 20, 30, 60, 90, 120, 240, and 480 min of incubation at room temperature • 5. Mix each time point after adding sample and place on ice. • 6. Centrifuge time points (12,000 rpm, 3 min), remove 15 μL of the supernatant and mix with 15 μL 0.1% TFA in a V-bottom microtiter plate. • 7. Place microtiter plate in autosampler of HPLC and analyze on Restek Pinnacle C18 column (2.1×100 mm). • 8. Generate extracted ion chromatogram for parent compound and parent compound+18 (H2O). Integrate extracted ion chromatograms (EIC) and plot % total peak area for parent and adduct versus time. Fit to a model of single phase exponential decay [Y=A0*exp(−k*x)+C]. T½ is equal to ln(2)/k.

Thrombin = molecular target: T1, Thrombin (Homo sapiens, UniProt P00734); assay: Dose response assay for protease inhibitors: thrombin (FXIa fold selectivity); assay type: biochemical; conditions: fold selectivity for FXIa over thrombin
T1 construct: Thrombin; 0.2 μM in 50% glycerol (7.34 μg/mL)
Experimental: (§1) • Assay buffer: 20 mM Hepes, pH 7.4; 150 mM NaCl; 0.02% Tween 20 • Compounds: 10 mM stocks in DMSO • Substrate: 20 mM Glp-Pro-Arg-AMC, 25 mg/2.3 mL H2O (store at +4° C.) [Factor XIa, thrombin, and trypsin] • 20 mM Pro-Phe-Arg-AMC (Bachem I-1295), 25 mg/2.2 mL H2O (store at +4° C.) [Factor Xa] • Enzyme: Factor XIa; 0.25 μM in 50% glycerol (20 μg/mL) • Trypsin; 0.2 μM in 50% glycerol (4.8 μg/mL) • Thrombin; 0.2 μM in 50% glycerol (7.34 μg/mL) • Factor Xa; 0.2 μM in 50% glycerol (9.2 μg/mL) • These stocks are aliquoted ([…]) and stored at −20° C. Methods: • 1. Dilute the substrate to 100 μM in assay buffer (30 μL/6 mL). The enzyme is diluted to 0.5 nM just prior to use (12 μL/6 mL for Factor XIa; 15 μL/6 mL for all of the rest.) • 2. Pipette 50 μL of substrate into each well of the 96 well (12×8) microtiter plate. (Column 1 is used as the 100% activity control and receives no compound, and Column 12 is the blank and receives no enzyme.) Add an additional 46 μL to column 2. • 3. Pipette 4 μL of each compound into the appropriate well in column 2 of the plate (unknowns assayed in triplicate, standard assayed in duplicate). The final compound concentration will be 1/50th of the stock. • 4. Serially two-fold dilute the compound by mixing the sample in column 2, removing 50 μL to the next well (column 3), mix and remove to column 4, etc. until column 11. After mixing column 11, remove 50 μL and discard. • 5. Pipette 50 μL of buffer into column 12. Initiate the reaction by adding 50 μL of enzyme solution to each well of columns 1-11 as rapidly as possible. • 6. Read the plate in a spectrophotometer (SpectraMax) at 30° C., wherein each well is measured every 60 s for 30 min. For Factor Xa assays, each well is measured every 1 min for a total of 60 min. • 7. For Factor XIa assays, the compounds are assayed, in duplicate, at 3 different starting concentrations, 20, 2, and 0.2 μM; 1:10, 1:100, and 1:1000 dil'n of 10 mM stock. All data sets are combined for graphing and data fitting. • 8. Data can be used both for estimation of IC50 and for estimation of Kon.

Trypsin = assay: Dose response assay for protease inhibitors: trypsin (FXIa fold selectivity); assay type: biochemical; conditions: fold selectivity for FXIa over trypsin
Experimental: as §1

human Factor XIa = molecular target: T2, human Factor XIa (Homo sapiens, UniProt P03951); assay: Factor XIa enzyme inhibition assay (IC50, purified enzyme); assay type: biochemical; conditions: purified enzyme 0.25 nM, substrate 50 μM; read-out: Potency hFXIa IC50
T2 construct: Enzyme: Factor XIa; 0.25 μM in 50% glycerol (20 μg/mL)
Experimental: as §1
Potential inhibitors of Factor XIa were evaluated using the following assay.
S-2366, pyroGlu-Pro-Arg-7-methylaminocourin (AMC), available from CPC Scientific, Inc., is based on the substrate pyro-Glu-Pro-Arg-pNA, available from Diapharma Group, Inc. (Columbus, Ohio), where the p-nitroanaline group is replaced with 7-methylaminocoumarin (AMC).
The final concentration of the substrate in the assay was 50 μM, and the final concentration of the enzyme was 0.25 nM. Inhibitors were tested by serial dilution over an appropriate range to yield a dose response curve for determination of the inhibitors' IC50 value. The assay mixture was read every minute for 30 minutes in order to generate progress curves. The plates were read in a Spectramax m5 Multimode Plate Reader (Molecular Devices LLC, Sunnyvale, Calif.). Dose response curves were fit to Equation 1 below in which A is the maximum inhibition, B is the minimum inhibition, C is the IC50, and D is the Hill coefficient. [(A−B)/(1+(X/C)^D)]+B (Equation 1)

Factor Xa = molecular target: T3, Factor Xa (Homo sapiens, UniProt P00742); assay: Dose response assay for protease inhibitors: Factor Xa (FXIa fold selectivity); assay type: biochemical; conditions: fold selectivity for FXIa over Factor Xa
T3 construct: Factor Xa; 0.2 μM in 50% glycerol (9.2 μg/mL)
Experimental: as §1

T3 sequence (P00742 235-488 limits assumed): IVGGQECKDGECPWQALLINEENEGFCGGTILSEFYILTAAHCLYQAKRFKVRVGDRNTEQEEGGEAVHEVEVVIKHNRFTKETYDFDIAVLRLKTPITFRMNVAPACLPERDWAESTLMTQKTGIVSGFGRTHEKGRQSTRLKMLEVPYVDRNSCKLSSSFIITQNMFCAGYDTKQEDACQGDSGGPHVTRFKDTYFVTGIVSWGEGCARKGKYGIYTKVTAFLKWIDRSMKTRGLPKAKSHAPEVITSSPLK
T3 sequence (P00742 41-179 partner limits assumed): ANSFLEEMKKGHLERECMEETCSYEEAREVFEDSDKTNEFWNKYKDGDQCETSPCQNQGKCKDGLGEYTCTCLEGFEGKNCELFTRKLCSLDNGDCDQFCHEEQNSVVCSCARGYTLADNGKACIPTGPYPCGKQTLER
T2 sequence (P03951 388-625 limits assumed): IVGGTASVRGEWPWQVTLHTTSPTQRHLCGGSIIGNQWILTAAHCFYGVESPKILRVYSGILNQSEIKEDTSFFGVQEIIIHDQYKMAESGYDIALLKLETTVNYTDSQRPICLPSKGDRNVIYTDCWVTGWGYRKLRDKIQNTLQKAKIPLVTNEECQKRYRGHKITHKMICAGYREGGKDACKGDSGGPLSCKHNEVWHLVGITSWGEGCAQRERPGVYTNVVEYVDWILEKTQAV
T2 sequence (P03951 19-387 partner limits assumed): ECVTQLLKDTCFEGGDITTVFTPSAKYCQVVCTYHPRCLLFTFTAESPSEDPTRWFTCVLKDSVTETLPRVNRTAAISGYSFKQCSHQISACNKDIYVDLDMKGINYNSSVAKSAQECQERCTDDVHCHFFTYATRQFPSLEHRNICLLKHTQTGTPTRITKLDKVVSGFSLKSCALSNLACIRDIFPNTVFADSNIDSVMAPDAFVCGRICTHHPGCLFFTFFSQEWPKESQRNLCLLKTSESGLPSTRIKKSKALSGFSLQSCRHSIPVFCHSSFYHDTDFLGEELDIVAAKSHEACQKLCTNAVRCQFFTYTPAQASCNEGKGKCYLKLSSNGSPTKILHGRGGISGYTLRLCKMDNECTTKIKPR

Row | SMILES | half-life [1] | FXIa Fold Selectivity Thrombin (Thrombin) | FXIa Fold Selectivity Trypsin (Trypsin) | IC50 (human Factor XIa) | FXIa Fold Selectivity FXa (Factor Xa)
1 | O=C(O)[C@@H]1[C@@H](Cc2ccncc2)C(=O)N1C(=O)N[C@@H](C1CCCCC1)C(F)(F)F [Example 135] | > 1.67 h | G (“G” indicates 1-500) | G (“G” indicates 1-500) | 100 to 1000 nM | G (“G” indicates 1-500)
2 | Nc1cc(C[C@H]2C(=O)N(C(=O)NC(c3ccccc3)c3ccccc3)[C@@H]2Oc2ccccc2)ccn1 [Example 27] | < 1.67 h | G (“G” indicates 1-500) | G (“G” indicates 1-500) | 10 to 100 nM | H (“H” indicates 500-1000)
3 | C[C@@H](NC(=O)N1C(=O)[C@H](Cc2cnc(N)s2)[C@H]1C(=O)O)c1ccccc1 [Example 24] |  | G (“G” indicates 1-500) | G (“G” indicates 1-500) | > 1000 nM | 
4 | CCOC(=O)[C@@H]1[C@@H](Cc2ccnc(NC(=O)OC(C)OC(=O)C(C)C)c2)C(=O)N1C(=O)N[C@H](C)C1CCCCC1 (some centres unmarked) [Example 150] | < 1.67 h |  |  | 10 to 100 nM | 
5 | CCCCCCOC(=O)Nc1cc(C[C@H]2C(=O)N(C(=O)NC(c3ccccc3)c3ccccc3)[C@@H]2C(=O)OCC)ccn1 [Example 57] | < 1.67 h |  |  | > 1000 nM | 
6 | CCOC(=O)[C@@H]1[C@@H](Cc2ccnc(N)c2)C(=O)N1C(=O)NC(c1ccccc1)c1ccccc1 [Example 46] |  | G (“G” indicates 1-500) | G (“G” indicates 1-500) | 10 to 100 nM | I (“I” indicates >1000)
7 | COC(=O)[C@@H]1[C@@H](Cc2ccc(Cl)s2)C(=O)N1C(=O)N[C@H](C)c1ccccc1 [Example 2] | > 1.67 h | G (“G” indicates 1-500) | G (“G” indicates 1-500) | > 1000 nM | 
8 | Nc1ncc(C[C@H]2C(=O)N(C(=O)NC(c3ccccc3)c3ccccc3)[C@@H]2C(=O)O)s1 [Example 23] |  | G (“G” indicates 1-500) | G (“G” indicates 1-500) | 100 to 1000 nM | G (“G” indicates 1-500)
9 | CCCCCCOC(=O)Nc1cc(C[C@H]2C(=O)N(C(=O)N[C@H](C)c3ccccc3)[C@@H]2C(=O)O)ccn1 [Example 175] | > 1.67 h |  |  | > 1000 nM | 
10 | Nc1cc(CC[C@H]2C(=O)N(C(=O)NC(c3ccccc3)c3ccccc3)[C@@H]2C(=O)O)ccn1 [Example 25] |  | G (“G” indicates 1-500) | G (“G” indicates 1-500) | 100 to 1000 nM | G (“G” indicates 1-500)
11 | CC(=O)OCOC(=O)[C@@H]1[C@@H](Cc2ccnc(NC(=O)OCOC(=O)C(C)C)c2)C(=O)N1C(=O)N[C@H](C)c1ccc2c(c1)OC(F)(F)O2 [Example 180] | < 1.67 h |  |  | 10 to 100 nM | 
12 | CC[C@@H](NC(=O)N1C(=O)[C@H](Cc2ccnc(N)c2)[C@H]1C(=O)O)c1ccccc1 [Example 36] |  | I (“I” indicates >1000) | G (“G” indicates 1-500) | < 10 nM | I (“I” indicates >1000)
13 | C[C@@H](NC(=O)N1C(=O)[C@H](Cc2cncs2)[C@H]1C(=O)O)c1ccc2c(c1)OC(F)(F)O2 [Example 102] | > 1.67 h |  |  | > 1000 nM | 
14 | CCCCCCOC(=O)Nc1cc(C[C@H]2C(=O)N(C(=O)NC(C)c3ccccc3)[C@@H]2C(=O)OCC)ccn1 (some centres unmarked) [Example 160] | < 1.67 h |  |  | 100 to 1000 nM | 
15 | CCCCCCOC(=O)Nc1cc(C[C@H]2C(=O)N(C(=O)NC(c3ccccc3)c3ccccc3)[C@@H]2C(=O)O)ccn1 [Example 56] | > 1.67 h |  |  | > 1000 nM | 
16 | C[C@@H](NC(=O)N1C(=O)[C@H](Cc2ccnc(N)c2)[C@H]1C(=O)O)c1cccnc1 [Example 54] |  | I (“I” indicates >1000) | G (“G” indicates 1-500) | 10 to 100 nM | H (“H” indicates 500-1000)
17 | CCOC(=O)[C@@H]1[C@@H](Cc2ccc(Cl)nc2)C(=O)N1C(=O)N[C@H](C)c1ccc2c(c1)OC(F)(F)O2 [Example 97] | < 1.67 h |  |  | > 1000 nM | 
18 | CC(C)OC(=O)[C@@H]1[C@@H](Cc2ccc(Cl)nc2)C(=O)N1C(=O)N[C@H](C)c1ccc2c(c1)OC(F)(F)O2 [Example 171] | < 1.67 h |  |  | > 1000 nM | 
19 | O=C(O)[C@@H]1[C@@H](Cc2cncc(Cl)c2)C(=O)N1C(=O)N[C@@H](C1CCCCC1)C(F)(F)F [Example 133] |  |  |  | > 1000 nM | 
20 | C[C@@H](NC(=O)N1C(=O)[C@H](Cc2ccnc(N)c2)[C@H]1C(=O)OCc1ccccc1)c1ccccc1 [Example 1] |  | G (“G” indicates 1-500) | G (“G” indicates 1-500) | < 10 nM | G (“G” indicates 1-500)
21 | COc1cccc(CC[C@H]2C(=O)N(C(=O)N[C@@H](C3CCCCC3)C(F)(F)F)[C@@H]2C(=O)O)c1 [Example 154] |  |  |  | > 1000 nM | 
22 | O=C(O)[C@@H]1[C@@H](Cc2ccccc2Cl)C(=O)N1C(=O)N[C@@H](C1CCCCC1)C(F)(F)F [Example 196] |  |  |  | > 1000 nM | 
23 | CCOC(=O)[C@@H]1[C@@H](Cc2ccnc(N)c2)C(=O)N1C(=O)N(C)[C@H](C)C1CCCCC1 [Example 151] | < 1.67 h |  |  | 10 to 100 nM | 
24 | O=C(O)[C@@H]1[C@@H](CCCc2ccccc2)C(=O)N1C(=O)N[C@@H](C1CCCCC1)C(F)(F)F [Example 152] |  |  |  | > 1000 nM | 
25 | C[C@@H](NC(=O)N1C(=O)[C@H](Cc2ccnc(N)c2)[C@H]1C(N)=O)c1ccccc1 [Example 13, (2S,3R)-3-[(2-aminopyridin-4-yl)methyl]-4-oxo-N-1-[(1R)-1-phenylethyl]azetidine-1,2-dicarboxamide trifluoroacetate] |  |  |  | > 1000 nM | 
26 | C[C@@H](NC(=O)N1C(=O)[C@H](Cc2ccnc(N)c2)[C@H]1C(=O)O)c1ccc(F)cc1 [Example 37] |  | I (“I” indicates >1000) | I (“I” indicates >1000) | < 10 nM | H (“H” indicates 500-1000)
27 | O=C(O)[C@@H]1[C@@H](CCc2ccc(Cl)cc2)C(=O)N1C(=O)N[C@@H](C1CCCCC1)C(F)(F)F [Example 153] |  |  |  | > 1000 nM | 
